Laboratory results from PubChem BioAssay AID2060902 (Molecular Pharmacology Branch, DTP, NCI, 2025).

Tested on: 485368-065-R3-J5-PDC spheroids with HUVEC/MSC, viability
Test: Anticancer human tumor 485368-065-R3-J5-PDC patient-derived pancreatic carcinoma cell line growth inhibition [RAS]
Conditions: for IC50: curve of first compound; for viability, T/C: stronger effect = lower value
Method in brief: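 Tumour cells grown as complex spheroids with HUVEC endothelial cells and mesenchymal stem cells, treated with RAS pathway inhibitor combinations. Each agent spans half-log steps from near clinical Cmax, or 10 microM where Cmax is unknown.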

[1] = second compound 0.000949 µM, first compound 0.0316 µM
[2] = second compound 0.000949 µM, first compound 0.1 µM
[3] = second compound 0.000949 µM, first compound 0.316 µM
[4] = second compound 0.000949 µM, first compound 1 µM
[5] = second compound 0.000949 µM, first compound 3.16 µM
[6] = second compound 0.000949 µM, first compound 10 µM
[7] = second compound 0.003 µM, first compound 0.0316 µM
[8] = second compound 0.003 µM, first compound 0.1 µM
[9] = second compound 0.003 µM, first compound 0.316 µM
[10] = second compound 0.003 µM, first compound 1 µM
[11] = second compound 0.003 µM, first compound 3.16 µM
[12] = second compound 0.003 µM, first compound 10 µM
[13] = second compound 0.00949 µM, first compound 0.0316 µM
[14] = second compound 0.00949 µM, first compound 0.1 µM
[15] = second compound 0.00949 µM, first compound 0.316 µM
[16] = second compound 0.00949 µM, first compound 1 µM
[17] = second compound 0.00949 µM, first compound 3.16 µM
[18] = second compound 0.00949 µM, first compound 10 µM
[19] = second compound 0.03 µM, first compound 0.0316 µM
[20] = second compound 0.03 µM, first compound 0.1 µM
[21] = second compound 0.03 µM, first compound 0.316 µM
[22] = second compound 0.03 µM, first compound 1 µM
[23] = second compound 0.03 µM, first compound 3.16 µM
[24] = second compound 0.03 µM, first compound 10 µM
[25] = second compound 0.0949 µM, first compound 0.0316 µM
[26] = second compound 0.0949 µM, first compound 0.1 µM
[27] = second compound 0.0949 µM, first compound 0.316 µM
[28] = second compound 0.0949 µM, first compound 1 µM
[29] = second compound 0.0949 µM, first compound 3.16 µM
[30] = second compound 0.0949 µM, first compound 10 µM
[31] = second compound 0.3 µM, first compound 0.0316 µM
[32] = second compound 0.3 µM, first compound 0.1 µM
[33] = second compound 0.3 µM, first compound 0.316 µM
[34] = second compound 0.3 µM, first compound 1 µM
[35] = second compound 0.3 µM, first compound 3.16 µM
[36] = second compound 0.3 µM, first compound 10 µM
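Note: spheroids exposed to agents for seven days before readout.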

Compound: CC(=O)OC12COC1CC(O)C1(C)C(=O)C(O)C3=C(C)C(OC(=O)C(O)C(NC(=O)OC(C)(C)C)c4ccccc4)CC(O)(C(OC(=O)c4ccccc4)C21)C3(C)C (stereo unspecified) + CCn1c(-c2cccnc2C(C)OC)c2c3cc(ccc31)N1CCOC(CC(NC(=O)C(C(C)C)N(C)C(=O)C3(F)CCN(C(=O)C#CC(C)(C)N(C)C)CC3)C(=O)N3CCCC(N3)C(=O)OCC(C)(C)C2)C1
- IC50 (second compound 0.000949 µM): < 0.0316 µM
- IC50 (second compound 0.003 µM): < 0.0316 µM
- IC50 (second compound 0.00949 µM): < 0.0316 µM
- IC50 (second compound 0.03 µM): < 0.0316 µM
- IC50 (second compound 0.0949 µM): < 0.0316 µM
- IC50 (second compound 0.3 µM): < 0.0316 µM
- viability, T/C [1]: 12.6%
- viability, T/C [2]: 14.3%
- viability, T/C [3]: 13.1%
- viability, T/C [4]: 13.9%
- viability, T/C [5]: 21.4%
- viability, T/C [6]: 25.7%
- viability, T/C [7]: 15.6%
- viability, T/C [8]: 13.6%
- viability, T/C [9]: 14%
- viability, T/C [10]: 16.9%
- viability, T/C [11]: 18.9%
- viability, T/C [12]: 25.5%
- viability, T/C [13]: 13.2%
- viability, T/C [14]: 15.1%
- viability, T/C [15]: 14%
- viability, T/C [16]: 22.6%
- viability, T/C [17]: 21.1%
- viability, T/C [18]: 27.4%
- viability, T/C [19]: 12.2%
- viability, T/C [20]: 18.4%
- viability, T/C [21]: 19.4%
- viability, T/C [22]: 16.6%
- viability, T/C [23]: 21.1%
- viability, T/C [24]: 26%
- viability, T/C [25]: 10.7%
- viability, T/C [26]: 16.4%
- viability, T/C [27]: 14.5%
- viability, T/C [28]: 12.2%
- viability, T/C [29]: 21.3%
- viability, T/C [30]: 27.5%
- viability, T/C [31]: 13.1%
- viability, T/C [32]: 16.8%
- viability, T/C [33]: 15.9%
- viability, T/C [34]: 17.6%
- viability, T/C [35]: 27.7%
- viability, T/C [36]: 27.5%

Compound: NC1c2ccccc2OC12CCN(c1cnc3c(N4CCCc5ncccc54)n[nH]c3n1)CC2 (stereo unspecified) + CCn1c(-c2cccnc2C(C)OC)c2c3cc(ccc31)N1CCOC(CC(NC(=O)C(C(C)C)N(C)C(=O)C3(F)CCN(C(=O)C#CC(C)(C)N(C)C)CC3)C(=O)N3CCCC(N3)C(=O)OCC(C)(C)C2)C1
- IC50 (second compound 0.000949 µM): > 10 µM
- IC50 (second compound 0.003 µM): > 10 µM
- IC50 (second compound 0.00949 µM): > 10 µM
- IC50 (second compound 0.03 µM): > 10 µM
- IC50 (second compound 0.0949 µM): > 10 µM
- IC50 (second compound 0.3 µM): > 10 µM
- viability, T/C [1]: 84.7%
- viability, T/C [2]: 84.3%
- viability, T/C [3]: 81.9%
- viability, T/C [4]: 91.1%
- viability, T/C [5]: 86.6%
- viability, T/C [6]: 81.9%
- viability, T/C [7]: 85.7%
- viability, T/C [8]: 90.1%
- viability, T/C [9]: 82.8%
- viability, T/C [10]: 80.5%
- viability, T/C [11]: 92.8%
- viability, T/C [12]: 87.9%
- viability, T/C [13]: 89.7%
- viability, T/C [14]: 90.3%
- viability, T/C [15]: 82.6%
- viability, T/C [16]: 78.6%
- viability, T/C [17]: 88.9%
- viability, T/C [18]: 84.9%
- viability, T/C [19]: 98.7%
- viability, T/C [20]: 93%
- viability, T/C [21]: 82.7%
- viability, T/C [22]: 79.2%
- viability, T/C [23]: 83.6%
- viability, T/C [24]: 81.4%
- viability, T/C [25]: 82.3%
- viability, T/C [26]: 86.8%
- viability, T/C [27]: 81.1%
- viability, T/C [28]: 77%
- viability, T/C [29]: 87.7%
- viability, T/C [30]: 76.5%
- viability, T/C [31]: 78.3%
- viability, T/C [32]: 86.1%
- viability, T/C [33]: 75.3%
- viability, T/C [34]: 81.1%
- viability, T/C [35]: 98.2%
- viability, T/C [36]: 69.7%

Compound: Nc1ccn(C2OC(CO)C(O)C2(F)F)c(=O)n1 (stereo unspecified) + CCn1c(-c2cccnc2C(C)OC)c2c3cc(ccc31)N1CCOC(CC(NC(=O)C(C(C)C)N(C)C(=O)C3(F)CCN(C(=O)C#CC(C)(C)N(C)C)CC3)C(=O)N3CCCC(N3)C(=O)OCC(C)(C)C2)C1
- IC50 (second compound 0.000949 µM): 0.00704 µM
- IC50 (second compound 0.003 µM): 0.0067 µM
- IC50 (second compound 0.00949 µM): 0.00921 µM
- IC50 (second compound 0.03 µM): 0.0067 µM
- IC50 (second compound 0.0949 µM): 0.00684 µM
- IC50 (second compound 0.3 µM): 0.00666 µM
- viability, T/C (second compound 0.000949 µM, first compound 0.00316 µM): 94.9%
- viability, T/C (second compound 0.000949 µM, first compound 0.01 µM): 30.4%
- viability, T/C [1]: 11.6%
- viability, T/C [2]: 11%
- viability, T/C [3]: 14.4%
- viability, T/C [4]: 11.8%
- viability, T/C (second compound 0.003 µM, first compound 0.00316 µM): 89.2%
- viability, T/C (second compound 0.003 µM, first compound 0.01 µM): 29.2%
- viability, T/C [7]: 10.5%
- viability, T/C [8]: 9.86%
- viability, T/C [9]: 13.8%
- viability, T/C [10]: 13.4%
- viability, T/C (second compound 0.00949 µM, first compound 0.00316 µM): 94.2%
- viability, T/C (second compound 0.00949 µM, first compound 0.01 µM): 46.6%
- viability, T/C [13]: 11.3%
- viability, T/C [14]: 11.4%
- viability, T/C [15]: 11.3%
- viability, T/C [16]: 12.1%
- viability, T/C (second compound 0.03 µM, first compound 0.00316 µM): 89.7%
- viability, T/C (second compound 0.03 µM, first compound 0.01 µM): 28.8%
- viability, T/C [19]: 12.1%
- viability, T/C [20]: 12.9%
- viability, T/C [21]: 11.7%
- viability, T/C [22]: 10.4%
- viability, T/C (second compound 0.0949 µM, first compound 0.00316 µM): 96.9%
- viability, T/C (second compound 0.0949 µM, first compound 0.01 µM): 26.8%
- viability, T/C [25]: 11.9%
- viability, T/C [26]: 9.81%
- viability, T/C [27]: 12.7%
- viability, T/C [28]: 10.6%
- viability, T/C (second compound 0.3 µM, first compound 0.00316 µM): 94%
- viability, T/C (second compound 0.3 µM, first compound 0.01 µM): 25.7%
- viability, T/C [31]: 12.1%
- viability, T/C [32]: 11%
- viability, T/C [33]: 11.5%
- viability, T/C [34]: 9.33%
